Measured values published in patent publication US4704229A, “Surface-active compounds of the sulfobetaines family, their manufacture and use, particularly for enhanced oil recovery” (Institut Francais du Petrole, priority 1984, dated 1987).

Assays:
Format in all cases: physicochemical
[1] = Solubility in water at 20° C.
Procedure: Solubility in water at 20° C. of the sulfobetaines of examples 2, 3, 5 and 7 (Table I).

[2] = Measurement of the critical micellar concentration (CMC) by surface tension (tensiometer, water/SA-ambient air interface); settings: permuted water; for CMC: room temperature of 20° C.; for Surface tension: water/SA-ambient air interface, 20° C., Table II beside CMC
Procedure: Measurement of the critical micellar concentration (CMC) of the sulfobetaines of examples 2, 3, 5, and 7.
Preparation of solutions for the measurements of CMC values.
The method is a standard method using solutions of initial surfactant (SA) concentration of 0.5 g/l, in freshly permuted water, at room temperature of 20° C. The SA-water mixture is stirred up to complete dissolution and then a series of titrated solutions are obtained by successive dilution, by withdrawing a determined volume of mother-solution, brought each time to a standard volume i.e. 1 ml+39 ml; 2 ml+38 ml; 3 ml+37 ml; . . . The various solutions are stirred for 30 minutes and maintained at rest for 2 hours. The surface tensions are measured by means of a tensiometer Tensiomat n^3 Prolabo whose operating principle consists of measuring the pullout load of a stirrup piece placed at the water/SA-ambient air interface, expressed in millinewton/meter.
The CMC value corresponds to the inflection point of the obtained two straight lines.

[3] = Micro-emulsion test: determination of optimum solubility and optimum salt content parameters; settings: pentanol as cosurfactant, dodecane as oil; brine NaCl/CaCl2 9/1
Excerpt: Micro-emulsion test: Determination of optimum solubility and optimum salt content parameters.
The surface-active properties have been determined by analysis of the behaviour of sulfobetaines in a mixture defined according to standard conditions:
brine (NaCl, CaCl2 with (NaCl/CaCl2)=(9/1): 4.5 g
Depending on the salt content of the brine (0-200 g/l), three mono-, di- or triphasic systems can be observed when the product has surface-active properties:
(1) the behavior referred to as Windsor I, wherein an equilibrium is observed between oil phase and με phase*.
(2) a behavior referred to as Windsor II, wherein an equilibrium is observed between με phase and aqueous phase.
(3) and, finally, a so-called Windsor III systems, wherein the intermediary με phase is in equilibrium with a supernatant oil phase and an aqueous phase.
The latter system has the pecularity of very low interfacial tensions. […] The optimum solubility and optimum salinity parameters, corresponding to equal amounts of water and oil in the micro-emulsion, are defined in this system.
By way of example, for sulfobetaine: [drawing 25] the following parameters have been obtained with pentanol as cosurfactant and dodecane as oil: […]

solubility [1] [mg/mL]	CMC [2] [g/L]	Surface tension [2] [mN/m]	optimum salinity parameter [3] [g/L]	optimum solubility parameter [3] [%]	Compound
300	0.04	54			CCCCCCCCCCCC[N+](C)(C)CCN(CCCS(=O)(=O)[O-])C(C)=O [Example 2, 4-acetyl-4-aza-6(N,N-dimethyl-laurylammonium)hexane sulfonate]
300	0.15	49			CCCCCCCCCCCC[N+](C)(C)CCCN(CCCS(=O)(=O)[O-])C(C)=O [Example 5, 4-acetyl-4-aza-7 (N,N-dimethyl laurylammonium)heptane sulfonate]
			30	55	CCCCCCCCCCCCCCCCCC[N+](C)(C)CCN(CCCS(=O)(=O)[O-])C(C)=O [drawing 25]

The remaining lines, values behind:

Compound	solubility [1] [mg/mL]	CMC [2] [g/L]	Surface tension [2] [mN/m]	optimum salinity parameter [3] [g/L]	optimum solubility parameter [3] [%]
CCCCCCCCCCCCCCCCCC[N+](C)(C)CCN(CCCS(=O)(=O)[O-])C(C)=O [Example 3, 4-acetyl-4-aza-6 (N,N-dimethyl stearylammonium) hexane sulfonate]	80	0.01	35		
CCCCCCCCCCCCCCCCCC[N+](C)(C)CCCN(CCCCS(=O)(=O)[O-])C(C)=O [Example 7, 5-acetyl-5-aza-8 (N,N-dimethylstearylammonium)octane sulfonate]	4	0.0028	39		
